Laboratory results from patent publication EP0211573A1, “Novel antimicrobial active agent and its production” (NICHIREI CORPORATION, priority 1985, dated 1987).
“Also recorded” adds a separate entry of the source.

Key:
[1] = Acute toxicity, intraperitoneal administration; conditions: mouse, in vivo, ip, mice, in physiological saline containing gum arabic, read-out: LD₅₀
Protocol: A compound, 1 - 5 mg, dissolved in physiological saline 0.2 ml containing gum arabic is administered intra peritoneally in mice, body weight 25 g, 10 mice in one group. LD₅₀ is over 200 mg/kg.

Staphylococcus aureus = experiment: Paper disc agar antimicrobial activity assay (inhibitory zone); assay type: cell-based; conditions: paper disc 6 mm, 37 °C, 12 hours incubation, read-out: Diameter of inhibitory zone
Protocol: (§1) The compound (Ia) dissolved in chloroform is immersed in paper disc, diameter 6 mm, and dried on a filter paper. Microbial strains shown in Table 1 are inoculated in agar medium, and paper discs hereinabove 1) are placed thereon then incubated at the temperature shown in the Table. Diameter of inhibitory zone is measured after 12 hours incubation.

Saccharomyces sake = experiment: as above; assay type: cell-based; conditions: paper disc 6 mm, 27 °C, 12 hours incubation, read-out: Diameter of inhibitory zone
Protocol: as §1

Bacillus subtilis = experiment: as above; assay type: cell-based; parameters: key to Diameter of inhibitory zone: ±: inhibitory zone slightly observed; +: inhibitroy zone < 7mm; conditions: paper disc 6 mm, 37 °C, 12 hours incubation
Protocol: as §1

Sarcina lutea = experiment: as above; assay type: cell-based; parameters: key to Diameter of inhibitory zone: ±: inhibitory zone slightly observed; +: inhibitroy zone < 7mm; conditions: paper disc 6 mm, 37 °C, 12 hours incubation
Protocol: as §1

Escherichia coli = experiment: as above; assay type: cell-based; parameters: key to Diameter of inhibitory zone: ±: inhibitory zone slightly observed; +: inhibitroy zone < 7mm; conditions: paper disc 6 mm, 37 °C, 12 hours incubation
Protocol: as §1

[2] = Physico-chemical properties (solubility, nature); assay type: physicochemical

COC1=C(OC)C(=O)c2c(O)c3c(c(O)c2C1=O)OCO3 [Ia, 5,8-dihydroxy-2,3-dimethoxy-6,7-methylenedioxy-1,4-naphthoquinone]
LD50 [1]: > 200 mg/kg | zone of inhibition at 28 µg/mL (Staphylococcus aureus; sample density 28 μg/m ℓ): < 7 mm | zone of inhibition at 56 µg/mL (Staphylococcus aureus; sample density 56 μg/m ℓ): < 7 mm | zone of inhibition at 112 µg/mL (Staphylococcus aureus; sample density 112 μg/m ℓ): < 7 mm | zone of inhibition at 224 µg/mL (Staphylococcus aureus; sample density 224 μg/m ℓ): 7.7 mm | zone of inhibition at 448 µg/mL (Staphylococcus aureus; sample density 448 μg/m ℓ): 8.45 mm | zone of inhibition at 56 µg/mL (Saccharomyces sake; sample density 56 μg/m ℓ): < 7 mm | zone of inhibition at 224 µg/mL (Saccharomyces sake; sample density 224 μg/m ℓ): 7 mm | zone of inhibition at 448 µg/mL (Saccharomyces sake; sample density 448 μg/m ℓ): 7.3 mm | zone of inhibition at 14 µg/mL (Bacillus subtilis; Bacillus subtilis, sample density 14 μg/m ℓ, read-out: Diameter of inhibitory zone): 7.1 mm | zone of inhibition at 28 µg/mL (Bacillus subtilis; Bacillus subtilis, sample density 28 μg/m ℓ, read-out: Diameter of inhibitory zone): 9.5 mm | zone of inhibition at 56 µg/mL (Bacillus subtilis; Bacillus subtilis, sample density 56 μg/m ℓ, read-out: Diameter of inhibitory zone): 8.6 mm | zone of inhibition at 112 µg/mL (Bacillus subtilis; Bacillus subtilis, sample density 112 μg/m ℓ, read-out: Diameter of inhibitory zone): 13.3 mm | zone of inhibition at 224 µg/mL (Bacillus subtilis; Bacillus subtilis, sample density 224 μg/m ℓ, read-out: Diameter of inhibitory zone): 13.3 mm | zone of inhibition at 448 µg/mL (Bacillus subtilis; Bacillus subtilis, sample density 448 μg/m ℓ, read-out: Diameter of inhibitory zone): 15.5 mm | Diameter of inhibitory zone (Bacillus subtilis; sample density 7 μg/m ℓ): ±** | zone of inhibition at 56 µg/mL (Sarcina lutea; Micrococcus luteus, sample density 56 μg/m ℓ, read-out: Diameter of inhibitory zone): < 7 mm | zone of inhibition at 112 µg/mL (Sarcina lutea; Micrococcus luteus, sample density 112 μg/m ℓ, read-out: Diameter of inhibitory zone): 7.4 mm | zone of inhibition at 224 µg/mL (Sarcina lutea; Micrococcus luteus, sample density 224 μg/m ℓ, read-out: Diameter of inhibitory zone): 7.4 mm | zone of inhibition at 448 µg/mL (Sarcina lutea; Micrococcus luteus, sample density 448 μg/m ℓ, read-out: Diameter of inhibitory zone): 7.4 mm | Diameter of inhibitory zone (Sarcina lutea; sample density 14 μg/m ℓ): ± | Diameter of inhibitory zone (Sarcina lutea; sample density 28 μg/m ℓ): ± | zone of inhibition at 112 µg/mL (Escherichia coli; Escherichia coli, sample density 112 μg/m ℓ, read-out: Diameter of inhibitory zone): < 7 mm | zone of inhibition at 224 µg/mL (Escherichia coli; Escherichia coli, sample density 224 μg/m ℓ, read-out: Diameter of inhibitory zone): < 7 mm | zone of inhibition at 448 µg/mL (Escherichia coli; Escherichia coli, sample density 448 μg/m ℓ, read-out: Diameter of inhibitory zone): < 7 mm | Diameter of inhibitory zone (Escherichia coli; sample density 56 μg/m ℓ): ± | nature [2]: acidic substance (water soluble under alkaline conditions) | solubility ([2]; acidic conditions, in organic solvent): soluble | solubility ([2]; acidic conditions, in water): insoluble | solubility ([2]; alkaline conditions, in organic solvents): insoluble | solubility ([2]; alkaline conditions, in water): easily soluble; also recorded: easily soluble under neutral and acidic conditions in organic solvents such as methanol, acetone, ethyl acetate, chloroform or benzene; easily soluble under alkaline conditions in water | solubility ([2]; neutral and acidic conditions, in organic solvents such as methanol, acetone, ethyl acetate, chloroform or benzene): easily soluble; also recorded: easily soluble under neutral and acidic conditions in organic solvents such as methanol, acetone, ethyl acetate, chloroform or benzene; easily soluble under alkaline conditions in water
